Each molecule was assayed on HIV-IIIb (assay: Test A: Antiviral Assay in MT4 Cells). Conditions: Human immunodeficiency virus 1, IIIB, MT4, 120 h.
Assay type: cell-based
In short: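 MT-4 cells pre-infected with HIV-IIIb (0.004 m.o.i.) at 37 °C, then exposed to 3-fold serial compound dilutions (10 concentrations, quadruplicate) in RPMI 1640/10% FBS. After 5 days at 37 °C, viability read by CellTiter-Glo luminescence.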

| SMILES | EC50 [nM] |
| --- | --- |
| Cc1cc2nc(-c3cncc(N4CCN(C(C)C)CC4)n3)sc2c(-c2ccc(Cl)cc2)c1[C@H](OC(C)(C)C)C(=O)O [Compound 480, (S)-2-tert-butoxy-2-(7-(4-chlorophenyl)-2-(6-(4-isopropylpiperazin-1-yl)pyrazin-2-yl)-5-methylbenzo[d]thiazol-6-yl)acetic acid] | 2 |
| Cc1cc2nc(-c3ccnc(-c4ncc5c(n4)c(C)nn5C)c3)sc2c(-c2ccc(Cl)cc2)c1[C@H](OC(C)(C)C)C(=O)O [Compound 488, (S)-2-tert-butoxy-2-(7-(4-chlorophenyl)-2-(2-(1,3-dimethyl-1H-pyrazolo[4,3-d]pyrimidin-5-yl)pyridin-4-yl)-5-methylbenzo[d]thiazol-6-yl)acetic acid] | 11 |

Same assay, conditions: Human immunodeficiency virus 1, IIIB, MT4, 120 h, Table 1; MT-4 cells infected with HIV-IIIb, 5 days of incubation, CellTiter-Glo; read-out: EC50

| SMILES | EC50 [nM] |
| --- | --- |
| Cc1cc2nc(-n3cccc(-c4ccc5c(cnn5C)c4)c3=O)sc2c(-c2ccc(Cl)cc2)c1[C@H](OC(C)(C)C)C(=O)O [Compound 117, (S)-2-tert-butoxy-2-(7-(4-chlorophenyl)-5-methyl-2-(3-(1-methyl-1H-indazol-5-yl)-2-oxopyridin-1(2H)-yl)benzo[d]thiazol-6-yl)acetic acid] | 14 |
| Cc1cc2nc(-c3ccnc(-c4ccc5c(cnn5C)c4)n3)sc2c(-c2ccc(Cl)cc2)c1[C@H](OC(C)(C)C)C(=O)O [Compound 110, (S)-2-tert-butoxy-2-(7-(4-chlorophenyl)-5-methyl-2-(2-(1-methyl-1H-indazol-5-yl)pyrimidin-4-yl)benzo[d]thiazol-6-yl)acetic acid] | 14 |
| Cc1cc2nc(N3CCN(c4ccc5c(cnn5C)c4)C3=O)sc2c(-c2ccc(Cl)cc2)c1[C@H](OC(C)(C)C)C(=O)O [Compound 124, (S)-2-tert-butoxy-2-(7-(4-chlorophenyl)-5-methyl-2-(3-(1-methyl-1H-indazol-5-yl)-2-oxoimidazolidin-1-yl)benzo[d]thiazol-6-yl)acetic acid] | 21 |
| COc1ccncc1-c1cccc(-c2nc3cc(C)c([C@H](OC(C)(C)C)C(=O)O)c(-c4ccc(Cl)cc4)c3s2)c1 [Compound 161] | 116 |
| Cc1cc2nc(-c3cncc(-c4ccc5c(cnn5C)c4)c3)sc2c(-c2ccc(Cl)cc2)c1[C@H](OC(C)(C)C)C(=O)O [Compound 114, (S)-2-tert-butoxy-2-(7-(4-chlorophenyl)-5-methyl-2-(5-(1-methyl-1H-indazol-5-yl)pyridin-3-yl)benzo[d]thiazol-6-yl)acetic acid] | 13 |

Same assay, conditions: Human immunodeficiency virus 1, IIIB, MT4, 120 h, Table 2; MT-4 cells infected with HIV-IIIb, 5 days of incubation, CellTiter-Glo; read-out: EC50

| SMILES | EC50 [nM] |
| --- | --- |
| Cc1cc2nc(-c3ccnc(-c4ccc5c(c4)OCCN5C)c3)sc2c(-c2ccc(Cl)cc2)c1[C@H](OC(C)(C)C)C(=O)O [Compound 400] | 16 |
| Cc1cc2nc(-c3ccnc(C4=CCN(C)CC4)n3)sc2c(-c2ccc(Cl)cc2)c1[C@H](OC(C)(C)C)C(=O)O [Compound 342] | 5 |
| Cc1nc2c([nH]1)CCN(c1nc3cc(C)c([C@H](OC(C)(C)C)C(=O)O)c(-c4ccc(Cl)cc4)c3s1)C2 [Compound 293, (S)-2-tert-butoxy-2-(7-(4-chlorophenyl)-5-methyl-2-(2-methyl-6,7-dihydro-1H-imidazo[4,5-c]pyridin-5(4H)-yl)benzo[d]thiazol-6-yl)acetic acid] | 215 |
| Cc1cc2nc(N3CCOC(C)(c4ccc(Cl)cc4)C3)sc2c(-c2ccc(Cl)cc2)c1[C@H](OC(C)(C)C)C(=O)O (stereo partly drawn) [Compound 322, (2S)-2-tert-butoxy-2-(7-(4-chlorophenyl)-2-(2-(4-chlorophenyl)-2-methylmorpholino)-5-methylbenzo[d]thiazol-6-yl)acetic acid] | 640 |
| CNc1nn(C)c2ccc(-c3nc4cc(C)c([C@H](OC(C)(C)C)C(=O)O)c(-c5ccc(Cl)cc5)c4s3)cc12 [Compound 444] | 10 |
| Cc1cc2nc(-c3ccnc(N4CCNCC4)n3)sc2c(-c2ccc(Cl)cc2)c1[C@H](OC(C)(C)C)C(=O)O [Compound 476, (S)-2-tert-butoxy-2-(7-(4-chlorophenyl)-5-methyl-2-(2-(piperazin-1-yl)pyrimidin-4-yl)benzo[d]thiazol-6-yl)acetic acid] | 128 |
| Cc1cc2nc(-c3ccnc(N4CCN(C(C)C)[C@@H](C)C4)n3)sc2c(-c2ccc(Cl)cc2)c1[C@H](OC(C)(C)C)C(=O)O [Compound 470, (S)-2-tert-butoxy-2-(7-(4-chlorophenyl)-2-(2-((S)-4-isopropyl-3-methylpiperazin-1-yl)pyrimidin-4-yl)-5-methylbenzo[d]thiazol-6-yl)acetic acid] | 3 |
| COc1ccc(-c2nccc(-c3nc4cc(C)c([C@H](OC(C)(C)C)C(=O)O)c(-c5ccc(Cl)cc5)c4s3)n2)cc1OC [Compound 203, (S)-2-tert-butoxy-2-(7-(4-chlorophenyl)-2-(2-(3,4-dimethoxyphenyl)pyrimidin-4-yl)-5-methylbenzo[d]thiazol-6-yl)acetic acid] | 12 |
| Cc1cc2nc(-c3cnc(C)c(-c4ccc5c(cnn5C)c4)c3)sc2c(-c2ccc(Cl)cc2)c1[C@H](OC(C)(C)C)C(=O)O [Compound 305, (S)-2-tert-butoxy-2-(7-(4-chlorophenyl)-5-methyl-2-(6-methyl-5-(1-methyl-1H-indazol-5-yl)pyridin-3-yl)benzo[d]thiazol-6-yl)acetic acid] | 10 |
| Cc1cc2nc(-c3ccnc(-c4cnc5c(c4)c(C)cn5C)c3)sc2c(-c2ccc(Cl)cc2)c1[C@H](OC(C)(C)C)C(=O)O [Compound 386] | 56 |
| Cc1cc2nc(-c3ccnc(-c4ccc5c(cnn5C)n4)c3)sc2c(-c2ccc(Cl)cc2)c1[C@H](OC(C)(C)C)C(=O)O [Compound 180, (S)-2-tert-butoxy-2-(7-(4-chlorophenyl)-5-methyl-2-(2-(1-methyl-1H-pyrazolo[4,3-b]pyridin-5-yl)pyridin-4-yl)benzo[d]thiazol-6-yl)acetic acid] | 5 |
| Cc1cc2nc(-c3ccnc(N4CC5CCCCN5C4=O)c3)sc2c(-c2ccc(Cl)cc2)c1[C@H](OC(C)(C)C)C(=O)O (some centres unmarked) [Compound 456] | 20 |
| Cc1cc2nc(N3Cc4ccncc4C3)sc2c(-c2ccc(Cl)cc2)c1[C@H](OC(C)(C)C)C(=O)O [Compound 432] | 18 |
| Cc1cc2nc(-c3ccc4nn(C)c(C)c4c3)sc2c(-c2ccc(Cl)cc2)c1[C@H](OC(C)(C)C)C(=O)O [Compound 265, (S)-2-tert-butoxy-2-(7-(4-chlorophenyl)-2-(2,3-dimethyl-2H-indazol-5-yl)-5-methylbenzo[d]thiazol-6-yl)acetic acid] | 15 |
| Cc1cc2nc(-c3ccnc(-c4cccc5c4OCC(=O)N5)c3)sc2c(-c2ccc(Cl)cc2)c1[C@H](OC(C)(C)C)C(=O)O [Compound 392] | 27 |
| Cc1cc2nc(-c3ccnc(-c4ccc5nn(C6COC6)cc5c4)c3)sc2c(-c2ccc(Cl)cc2)c1[C@H](OC(C)(C)C)C(=O)O [Compound 371] | 7 |
| Cc1cc2nc(-c3ccnc(-c4cnn(C)c4C)c3)sc2c(-c2ccc(Cl)cc2)c1[C@H](OC(C)(C)C)C(=O)O [Compound 376] | 19 |
| Cc1cc2nc(N3CCc4ccccc4C3)sc2c(-c2ccc(Cl)cc2)c1[C@H](OC(C)(C)C)C(=O)O [Compound 208, (S)-2-tert-butoxy-2-(7-(4-chlorophenyl)-2-(3,4-dihydroisoquinolin-2(1H)-yl)-5-methylbenzo[d]thiazol-6-yl)acetic acid] | 62 |
| COc1cc(-c2cc(-c3nc4cc(C)c([C@H](OC(C)(C)C)C(=O)O)c(-c5ccc(Cl)cc5)c4s3)ccn2)cnc1OC [Compound 345] | 28 |
| Cc1cc2nc(N3CCc4ncccc4C3)sc2c(-c2ccc(Cl)cc2)c1[C@H](OC(C)(C)C)C(=O)O [Compound 207, (S)-2-tert-butoxy-2-(7-(4-chlorophenyl)-2-(7,8-dihydro-1,6-naphthyridin-6(5H)-yl)-5-methylbenzo[d]thiazol-6-yl)acetic acid] | 19 |
| Cc1cc2nc(-c3ccnc(-c4ccc5c(c4)CCN5C)c3)sc2c(-c2ccc(Cl)cc2)c1[C@H](OC(C)(C)C)C(=O)O [Compound 397] | 32 |
| Cc1cc2nc(-c3ccnc(-c4cnc5c(c4)cc(C)n5C)c3)sc2c(-c2ccc(Cl)cc2)c1[C@H](OC(C)(C)C)C(=O)O [Compound 196, (S)-2-tert-butoxy-2-(7-(4-chlorophenyl)-2-(2-(1,2-dimethyl-1H-pyrrolo[2,3-b]pyridin-5-yl)pyridine-4-yl)-5-methylbenzo[d]thiazol-6-yl)acetic acid] | 33 |
| Cc1cc2nc(-c3ccnc(-c4ccc5nn(C)cc5c4C)c3)sc2c(-c2ccc(Cl)cc2)c1[C@H](OC(C)(C)C)C(=O)O [Compound 418] | 11 |
| Cc1cc2nc(N3CCN(C)C(c4ccc5c(cnn5C)c4)C3=O)sc2c(-c2ccc(Cl)cc2)c1[C@H](OC(C)(C)C)C(=O)O (stereo partly drawn) [Compound 274, (2S)-2-tert-butoxy-2-(7-(4-chlorophenyl)-5-methyl-2-(4-methyl-3-(1-methyl-1H-indazol-5-yl)-2-oxopiperazin-1-yl)benzo[d]thiazol-6-yl)acetic acid] | 31 |
| Cc1cc2nc(-c3ccnc(-c4ccc5cc[nH]c(=O)c5c4)c3)sc2c(-c2ccc(Cl)cc2)c1[C@H](OC(C)(C)C)C(=O)O [Compound 449] | 30 |
| Cc1cc2nc(-c3ccc4c(c3)nnn4C)sc2c(-c2ccc(Cl)cc2)c1[C@H](OC(C)(C)C)C(=O)O [Compound 210, (S)-2-tert-butoxy-2-(7-(4-chlorophenyl)-5-methyl-2-(1-methyl-1H-benzo[d][1,2,3]triazol-5-yl)benzo[d]thiazol-6-yl)acetic acid] | 6 |
| Cc1cc2nc(-c3ccnc(N4CCN(C5CC5)CC4)n3)sc2c(-c2ccc(Cl)cc2)c1[C@H](OC(C)(C)C)C(=O)O [Compound 339] | 11 |
| Cc1cc2nc(-c3ccc4nc(C)n([C@@H]5CCNC5)c4c3)sc2c(-c2ccc(Cl)cc2)c1[C@H](OC(C)(C)C)C(=O)O [Compound 299, (S)-2-tert-butoxy-2-(7-(4-chlorophenyl)-5-methyl-2-(2-methyl-1-((R)-pyrrolidin-3-yl)-1H-benzo[d]imidazol-6-yl)benzo[d]thiazol-6-yl)acetic acid] | 130 |
